Measurements from ChEMBL document CHEMBL1126959, “HMG-CoA reductase inhibitors: design, synthesis, and biological activity of tetrahydroindazole-substituted 3,5-dihydroxy-6-heptenoic acid sodium salts” (J Med Chem, 1993).
One block for each compound: values may come before it.

Key:
[1] = target: T1, 3-hydroxy-3-methylglutaryl-coenzyme A reductase (Rattus norvegicus, UniProt P51639); test: Inhibitory activity against partially purified rat liver HMG-CoA reductase in vitro; 0.0015-0.0049
T1 sequence (P51639 whole entry): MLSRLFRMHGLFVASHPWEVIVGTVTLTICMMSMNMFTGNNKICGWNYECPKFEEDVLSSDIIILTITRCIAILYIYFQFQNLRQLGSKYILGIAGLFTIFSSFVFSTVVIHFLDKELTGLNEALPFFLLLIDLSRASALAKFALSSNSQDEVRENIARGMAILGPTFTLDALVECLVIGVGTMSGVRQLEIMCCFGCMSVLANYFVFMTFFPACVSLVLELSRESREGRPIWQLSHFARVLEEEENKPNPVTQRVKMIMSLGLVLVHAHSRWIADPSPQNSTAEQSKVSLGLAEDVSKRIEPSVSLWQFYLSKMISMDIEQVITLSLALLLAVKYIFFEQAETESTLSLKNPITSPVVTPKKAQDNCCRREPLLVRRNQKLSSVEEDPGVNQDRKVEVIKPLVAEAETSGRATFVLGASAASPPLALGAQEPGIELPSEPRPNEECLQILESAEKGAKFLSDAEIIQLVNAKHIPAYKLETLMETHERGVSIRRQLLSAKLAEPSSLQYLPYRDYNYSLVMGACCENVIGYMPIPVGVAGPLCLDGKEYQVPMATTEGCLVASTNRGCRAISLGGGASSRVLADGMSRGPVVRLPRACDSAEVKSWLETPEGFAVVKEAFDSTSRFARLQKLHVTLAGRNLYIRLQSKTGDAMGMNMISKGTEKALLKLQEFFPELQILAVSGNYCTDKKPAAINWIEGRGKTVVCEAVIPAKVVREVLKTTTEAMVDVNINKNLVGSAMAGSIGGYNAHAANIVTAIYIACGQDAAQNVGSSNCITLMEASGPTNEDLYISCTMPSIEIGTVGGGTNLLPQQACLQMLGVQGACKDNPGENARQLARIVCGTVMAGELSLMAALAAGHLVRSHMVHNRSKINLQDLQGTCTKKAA

HepG2 [2] = test: Tested for ability to inhibit incorporation of [14C]acetate into cholesterol in cultured human hepatoma (HEP-G2) cells; 0.013-0.81; format: functional, cell-based
[3] = target: T1, 3-hydroxy-3-methylglutaryl-coenzyme A reductase; test: Inhibitory activity against partially purified rat liver HMG-CoA reductase in vitro; 0.0040-0.053
HepG2 [4] = test: Tested for ability to inhibit incorporation of [14C]acetate into cholesterol in cultured human hepatoma (HEP-G2) cells; 0.15-0.33; format: functional, cell-based
HepG2 [5] = test: Tested for ability to inhibit incorporation of [14C]acetate into cholesterol in cultured human hepatoma (HEP-G2) cells; 0.046-0.17; format: functional, cell-based
HepG2 [6] = test: Tested for ability to inhibit incorporation of [14C]acetate into cholesterol in cultured human hepatoma (HEP-G2) cells; 0.051-0.12; format: functional, cell-based
[7] = target: T1, 3-hydroxy-3-methylglutaryl-coenzyme A reductase; test: Inhibitory activity against partially purified rat liver HMG-CoA reductase in vitro; 0.021-0.036
[8] = target: T1, 3-hydroxy-3-methylglutaryl-coenzyme A reductase; test: Inhibitory activity against partially purified rat liver HMG-CoA reductase in vitro; 0.07-0.27
HepG2 [9] = test: Tested for ability to inhibit incorporation of [14C]acetate into cholesterol in cultured human hepatoma (HEP-G2) cells; 0.56-2.2; format: functional, cell-based
[10] = target: T1, 3-hydroxy-3-methylglutaryl-coenzyme A reductase; test: Inhibitory activity against partially purified rat liver HMG-CoA reductase in vitro; 0.17-0.61
HepG2 [11] = test: Tested for ability to inhibit incorporation of [14C]acetate into cholesterol in cultured human hepatoma (HEP-G2) cells; 2.9-4.6; format: functional, cell-based
[12] = target: T1, 3-hydroxy-3-methylglutaryl-coenzyme A reductase; test: Inhibitory activity against partially purified rat liver HMG-CoA reductase in vitro; 1.7-2.6
[13] = target: T1, 3-hydroxy-3-methylglutaryl-coenzyme A reductase; test: Inhibitory activity against partially purified rat liver HMG-CoA reductase in vitro; 4.1-22
HepG2 [14] = test: Tested for ability to inhibit incorporation of [14C]acetate into cholesterol in cultured human hepatoma (HEP-G2) cells; 0.16-0.68; format: functional, cell-based
[15] = target: T1, 3-hydroxy-3-methylglutaryl-coenzyme A reductase; test: Inhibitory activity against partially purified rat liver HMG-CoA reductase in vitro; 0.026-0.34
[16] = target: T1, 3-hydroxy-3-methylglutaryl-coenzyme A reductase; test: Inhibitory activity against partially purified rat liver HMG-CoA reductase in vitro; 0.16-0.24
HepG2 [17] = test: Tested for ability to inhibit incorporation of [14C]acetate into cholesterol in cultured human hepatoma (HEP-G2) cells; 0.0071-23; format: functional, cell-based
[18] = target: T1, 3-hydroxy-3-methylglutaryl-coenzyme A reductase; test: Inhibitory activity against partially purified rat liver HMG-CoA reductase in vitro; 0.027-0.046
HepG2 [19] = test: Tested for ability to inhibit incorporation of [14C]acetate into cholesterol in cultured human hepatoma (HEP-G2) cells; 0.44-3.0; format: functional, cell-based
[20] = target: T1, 3-hydroxy-3-methylglutaryl-coenzyme A reductase; test: Inhibitory activity against partially purified rat liver HMG-CoA reductase in vitro; 3.1-9.1
[21] = target: T1, 3-hydroxy-3-methylglutaryl-coenzyme A reductase; test: Inhibitory activity against partially purified rat liver HMG-CoA reductase in vitro; 3.8-19
[22] = target: T1, 3-hydroxy-3-methylglutaryl-coenzyme A reductase; test: Inhibitory activity against partially purified rat liver HMG-CoA reductase in vitro; 0.0073-0.017
HepG2 [23] = test: Tested for ability to inhibit incorporation of [14C]acetate into cholesterol in cultured human hepatoma (HEP-G2) cells; 0.019-0.14; format: functional, cell-based
[24] = target: T1, 3-hydroxy-3-methylglutaryl-coenzyme A reductase; test: Inhibitory activity against partially purified rat liver HMG-CoA reductase in vitro; 2.6-4.8

Structure (SMILES): O=C(O)C[C@H](O)C[C@H](O)/C=C/c1c2c(nn1-c1ccc(F)cc1)C(Cc1ccc(-c3ccccc3)cc1)CCC2 (stereo not given in full)
IC50 [1]: 3 nM | IC50 (HepG2 [2]): 100 nM

Structure (SMILES): Cc1ccc(CC2CCCc3c2nn(-c2ccc(F)cc2)c3/C=C/[C@@H](O)C[C@@H](O)CC(=O)O)cc1 (stereo not given in full)
IC50 (HepG2 [6]): 78 nM | IC50 [7]: 28 nM

Structure (SMILES): O=C(O)C[C@H](O)C[C@H](O)/C=C/c1c2c(nn1-c1ccc(F)cc1)C(Cc1ccc(Cl)cc1)CCC2 (stereo not given in full)
IC50 [8]: 140 nM | IC50 (HepG2 [9]): 1100 nM

Structure (SMILES): O=C(O)C[C@H](O)C[C@H](O)/C=C/c1c2c(nn1-c1ccc(F)cc1)-c1ccccc1CC2
IC50 [13]: 9.4 µM

Structure (SMILES): O=C(O)C[C@H](O)C[C@H](O)/C=C/c1c2c(nn1-c1ccc(F)cc1)C(Cc1ccccc1Cl)CCC2 (stereo not given in full)
IC50 (HepG2 [14]): 330 nM | IC50 [15]: 95 nM

Structure (SMILES): O=C(O)C[C@H](O)C[C@H](O)/C=C/c1c2c(nn1-c1ccc(F)cc1)C(Cc1ccc(F)cc1)CCC2 (stereo not given in full)
IC50 [16]: 200 nM | IC50 (HepG2 [17]): 400 nM

Structure (SMILES): O=C(O)C[C@H](O)C[C@H](O)/C=C/c1c2c(nn1-c1ccc(F)cc1)C(C1CCCCC1)CCC2 (stereo not given in full)
IC50 [21]: 8.5 µM

Results, then the compound that gave them:

IC50 [3]: 40 nM | IC50 (HepG2 [4]): 230 nM
Structure (SMILES): CC(C)c1ccc(CC2CCCc3c2nn(-c2ccc(F)cc2)c3/C=C/[C@@H](O)C[C@@H](O)CC(=O)O)cc1 (stereo not given in full)

IC50 [3]: 14 nM | IC50 (HepG2 [5]): 88 nM
Structure (SMILES): CC(C)(C)c1ccc(CC2CCCc3c2nn(-c2ccc(F)cc2)c3/C=C/[C@@H](O)C[C@@H](O)CC(=O)O)cc1 (stereo not given in full)

IC50 [10]: 320 nM | IC50 (HepG2 [11]): 3.6 µM
Structure (SMILES): COc1ccc(CC2CCCc3c2nn(-c2ccc(F)cc2)c3/C=C/[C@@H](O)C[C@@H](O)CC(=O)O)cc1OC (stereo not given in full)

IC50 [12]: 2100 nM
Structure (SMILES): CC1CCCc2c1nn(-c1ccc(F)cc1)c2/C=C/[C@@H](O)C[C@@H](O)CC(=O)O (stereo not given in full)

IC50 [18]: 35 nM | IC50 (HepG2 [19]): 1200 nM
Structure (SMILES): COc1cccc(CC2CCCc3c2nn(-c2ccc(F)cc2)c3/C=C/[C@@H](O)C[C@@H](O)CC(=O)O)c1 (stereo not given in full)

IC50 [20]: 5.3 µM
Structure (SMILES): O=C(O)C[C@H](O)C[C@H](O)/C=C/c1c2c(nn1-c1ccc(F)cc1)CCCC2

IC50 [22]: 9.2 nM | IC50 (HepG2 [23]): 50 nM
Structure (SMILES): CC[C@H](C)C(=O)O[C@H]1C[C@@H](C)C=C2C=C[C@H](C)[C@H](CC[C@@H]3C[C@@H](O)CC(=O)O3)C21 (stereo not given in full)

IC50 [24]: 3.6 µM
Structure (SMILES): O=C(O)C[C@H](O)C[C@H](O)/C=C/c1c2c(nn1-c1ccc(F)cc1)CCCCC2
